Results reported in ChEMBL document CHEMBL1140554, “2-Aryl-3,3,3-trifluoro-2-hydroxypropionic acids: a new class of protein tyrosine phosphatase 1B inhibitors” (Bioorg Med Chem Lett, 2007).
The source made the active and inactive calls. The rule behind the calls is not given here.

What follows are compounds tested against T1, Tyrosine-protein phosphatase non-receptor type 1 (Homo sapiens, UniProt P18031) (assay: Inhibition of PTP1B expressed in Sf9 cells).
T1 sequence (P18031 whole entry): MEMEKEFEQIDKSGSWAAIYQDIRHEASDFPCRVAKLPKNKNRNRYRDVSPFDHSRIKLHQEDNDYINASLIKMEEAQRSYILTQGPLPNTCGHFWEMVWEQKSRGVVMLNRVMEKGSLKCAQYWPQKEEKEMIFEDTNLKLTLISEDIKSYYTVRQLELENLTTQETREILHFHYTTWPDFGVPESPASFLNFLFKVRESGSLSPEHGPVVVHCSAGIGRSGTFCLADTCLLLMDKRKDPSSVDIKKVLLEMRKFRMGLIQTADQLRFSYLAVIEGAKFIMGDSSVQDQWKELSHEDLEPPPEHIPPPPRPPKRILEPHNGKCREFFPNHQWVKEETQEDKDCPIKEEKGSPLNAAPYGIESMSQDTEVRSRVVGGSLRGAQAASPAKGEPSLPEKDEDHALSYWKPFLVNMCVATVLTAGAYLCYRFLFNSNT

Compound	IC50
Cc1nc(-c2ccc(Cl)cc2)sc1CCOc1ccc2c(c1)c(C(O)(C(=O)O)C(F)(F)F)cn2COCC[Si](C)(C)C (stereo not given)	32 µM
Cc1nc(-c2ccc(Cl)cc2)sc1CCOc1cc(C(O)(C(=O)O)C(F)(F)F)ccc1O (stereo not given)	105 µM
Cc1nc(-c2ccc(Cl)cc2)sc1CCOc1cc(C(O)(C(=O)O)C(F)(F)F)ccc1OCc1ccccc1 (stereo not given)	3.2 µM
Cc1nc(-c2ccc(Cl)cc2)sc1CCOc1cc(C(O)(C(=O)O)C(F)(F)F)ccc1OCC(=O)O (stereo not given)	500 µM
Cc1nc(-c2ccc(Cl)cc2)sc1CCOc1cc(C(O)(C(=O)O)C(F)(F)F)ccc1OCc1ccc(F)cc1 (stereo not given)	23 µM
COc1ccc(COc2ccc(C(O)(C(=O)O)C(F)(F)F)cc2OCCc2sc(-c3ccc(Cl)cc3)nc2C)cc1 (stereo not given)	12 µM
Cc1nc(-c2ccc(Cl)cc2)sc1CCOc1cccc(C(O)(C(=O)O)C(F)(F)F)c1 (stereo not given)	37 µM
COC(=O)c1c(O)cccc1OCCOc1ccc2c(c1)c(C(O)(C(=O)O)C(F)(F)F)cn2COCC[Si](C)(C)C (stereo not given)	123 µM
Cc1nc(-c2ccc(Cl)cc2)sc1CCOc1cc(C(O)(C(=O)O)C(F)(F)F)ccc1OCCc1ccccc1 (stereo not given)	10 µM
Cc1nc(-c2ccc(Cl)cc2)sc1CCOc1cc(C(O)(C(=O)O)C(F)(F)F)ccc1OCc1ccncc1 (stereo not given)	36 µM
COCn1cc(C(O)(C(=O)O)C(F)(F)F)c2ccc(OCc3ccccc3)cc21 (stereo not given)	382 µM
O=C(c1ccccc1)C(c1ccccc1)c1ccc(C(F)(F)P(=O)(O)O)cc1 (stereo not given)	1.2 µM
COCn1cc(C(O)(C(=O)O)C(F)(F)F)c2cccc(OCc3ccccc3)c21 (stereo not given)	176 µM
COCn1cc(C(O)(C(=O)O)C(F)(F)F)c2cc(OCCc3sc(-c4ccc(Cl)cc4)nc3C)ccc21 (stereo not given)	59 µM
Cc1nc(-c2ccc(Cl)cc2)sc1CCOc1ccc2c(c1)c(C(O)(C(=O)O)C(F)(F)F)cn2Cc1ccccc1 (stereo not given)	27 µM
CCCCCOc1ccc(C(O)(C(=O)O)C(F)(F)F)cc1OCCc1sc(-c2ccc(Cl)cc2)nc1C (stereo not given)	12 µM
COC(=O)c1c(O)cccc1OC/C=C/c1ccc(F)c(-c2cc(C(=O)O)no2)c1	110 µM

The compounds below were run against T2, Tyrosine-protein phosphatase non-receptor type 1 (Homo sapiens) (UniProt P18031) (assay: Inhibition of PTP1B expressed in Sf9 cells at 400 uM).
T2 sequence (whole entry): T1 sequence (P18031 whole entry)

Compound	Activity
COCn1cc(C(O)(C(=O)O)C(F)(F)F)c2cc(OCc3ccccc3)ccc21 (stereo not given)	inactive
COCn1cc(C(O)(C(=O)O)C(F)(F)F)c2ccccc21 (stereo not given)	inactive

What follows are compounds tested against T1, Tyrosine-protein phosphatase non-receptor type 1 (assay: Inhibition of PTP1B in a cell-free assay).

Compound	IC50
Cc1nc(-c2ccc(Cl)cc2)sc1CCOc1cc(C(O)(C(=O)O)C(F)(F)F)ccc1OCc1ccccc1 (stereo not given)	3 µM
